Assay results published in the NIST ThermoML archive (doi:10.1021/acs.jced.8b00979).
± gives the expanded uncertainty stated by the source.

Experiment: xn = mol fraction of the nth substance listed
Conditions: 100 kPa, Liquid; for viscosity: Capillary tube (Ostwald / Ubbelohde) method; for mass density: Vibrating tube method

CCC(C)CO (stereo not given) [2-methyl-1-butanol] + CCCCCO
Conditions	mass density [kg/m3]	viscosity [mPa·s]
288.15 K, x2 = 0	823.35 ± 0.8	6.439 ± 0.26
288.15 K, x2 = 0.1	822.86 ± 0.8	6.245 ± 0.25
288.15 K, x2 = 0.2	822.37 ± 0.8	6.036 ± 0.24
288.15 K, x2 = 0.3	821.88 ± 0.79	5.819 ± 0.23
288.15 K, x2 = 0.399	821.4 ± 0.79	5.595 ± 0.23
288.15 K, x2 = 0.5	820.92 ± 0.79	5.361 ± 0.22
288.15 K, x2 = 0.6	820.44 ± 0.79	5.128 ± 0.21
288.15 K, x2 = 0.699	819.96 ± 0.79	4.916 ± 0.2
288.15 K, x2 = 0.799	819.5 ± 0.79	4.741 ± 0.19
288.15 K, x2 = 0.899	819.03 ± 0.79	4.697 ± 0.19
293.15 K, x2 = 0	819.64 ± 0.79	5.3 ± 0.21
293.15 K, x2 = 0.1	819.15 ± 0.79	5.146 ± 0.21
293.15 K, x2 = 0.2	818.66 ± 0.79	4.998 ± 0.2
293.15 K, x2 = 0.3	818.19 ± 0.79	4.837 ± 0.2
293.15 K, x2 = 0.399	817.71 ± 0.79	4.677 ± 0.19
293.15 K, x2 = 0.5	817.24 ± 0.79	4.516 ± 0.18
293.15 K, x2 = 0.6	816.77 ± 0.79	4.362 ± 0.18
293.15 K, x2 = 0.699	816.3 ± 0.79	4.196 ± 0.17
293.15 K, x2 = 0.799	815.84 ± 0.79	4.062 ± 0.16
293.15 K, x2 = 0.899	815.38 ± 0.79	4.046 ± 0.16
298.15 K, x2 = 0	815.85 ± 0.79	4.501 ± 0.18
298.15 K, x2 = 0.1	815.37 ± 0.79	4.383 ± 0.18
298.15 K, x2 = 0.2	814.9 ± 0.79	4.255 ± 0.17
298.15 K, x2 = 0.3	814.43 ± 0.79	4.129 ± 0.17
298.15 K, x2 = 0.399	813.97 ± 0.79	3.988 ± 0.16
298.15 K, x2 = 0.5	813.51 ± 0.79	3.848 ± 0.15
298.15 K, x2 = 0.6	813.05 ± 0.79	3.72 ± 0.15
298.15 K, x2 = 0.699	812.6 ± 0.79	3.604 ± 0.15
298.15 K, x2 = 0.799	812.15 ± 0.79	3.507 ± 0.14
298.15 K, x2 = 0.899	811.7 ± 0.79	3.489 ± 0.14
303.15 K, x2 = 0	812.12 ± 0.79	3.825 ± 0.15
303.15 K, x2 = 0.1	811.64 ± 0.79	3.725 ± 0.15
303.15 K, x2 = 0.2	811.17 ± 0.79	3.63 ± 0.15
303.15 K, x2 = 0.3	810.71 ± 0.78	3.518 ± 0.14
303.15 K, x2 = 0.399	810.26 ± 0.78	3.402 ± 0.14
303.15 K, x2 = 0.5	809.8 ± 0.78	3.287 ± 0.13
303.15 K, x2 = 0.6	809.34 ± 0.78	3.197 ± 0.13
303.15 K, x2 = 0.699	808.89 ± 0.78	3.114 ± 0.13
303.15 K, x2 = 0.799	808.45 ± 0.78	3.051 ± 0.12
303.15 K, x2 = 0.899	808 ± 0.78	3.018 ± 0.12
308.15 K, x2 = 0	808.29 ± 0.78	3.265 ± 0.13
308.15 K, x2 = 0.1	807.82 ± 0.78	3.176 ± 0.13
308.15 K, x2 = 0.2	807.36 ± 0.78	3.099 ± 0.12
308.15 K, x2 = 0.3	806.92 ± 0.78	3.007 ± 0.12
308.15 K, x2 = 0.399	806.47 ± 0.78	2.921 ± 0.12
308.15 K, x2 = 0.5	806.03 ± 0.78	2.831 ± 0.11
308.15 K, x2 = 0.6	805.58 ± 0.78	2.765 ± 0.11
308.15 K, x2 = 0.699	805.15 ± 0.78	2.701 ± 0.11
308.15 K, x2 = 0.799	804.71 ± 0.78	2.66 ± 0.11
308.15 K, x2 = 0.899	804.28 ± 0.78	2.648 ± 0.11
313.15 K, x2 = 0	804.41 ± 0.78	2.783 ± 0.11
313.15 K, x2 = 0.1	803.95 ± 0.78	2.717 ± 0.11
313.15 K, x2 = 0.2	803.51 ± 0.78	2.657 ± 0.11
313.15 K, x2 = 0.3	803.07 ± 0.78	2.59 ± 0.11
313.15 K, x2 = 0.399	802.64 ± 0.78	2.528 ± 0.1
313.15 K, x2 = 0.5	802.21 ± 0.78	2.468 ± 0.1
313.15 K, x2 = 0.6	801.78 ± 0.78	2.419 ± 0.098
313.15 K, x2 = 0.699	801.35 ± 0.78	2.365 ± 0.096
313.15 K, x2 = 0.799	800.93 ± 0.78	2.327 ± 0.094
313.15 K, x2 = 0.899	800.51 ± 0.78	2.323 ± 0.094
318.15 K, x2 = 0	800.47 ± 0.78	2.379 ± 0.096
318.15 K, x2 = 0.1	800.02 ± 0.78	2.329 ± 0.094
318.15 K, x2 = 0.2	799.6 ± 0.77	2.281 ± 0.092
318.15 K, x2 = 0.3	799.18 ± 0.77	2.232 ± 0.09
318.15 K, x2 = 0.399	798.76 ± 0.77	2.187 ± 0.088
318.15 K, x2 = 0.5	798.34 ± 0.77	2.141 ± 0.086
318.15 K, x2 = 0.6	797.93 ± 0.77	2.103 ± 0.085
318.15 K, x2 = 0.699	797.52 ± 0.77	2.07 ± 0.084
318.15 K, x2 = 0.799	797.11 ± 0.77	2.041 ± 0.082
318.15 K, x2 = 0.899	796.7 ± 0.77	2.028 ± 0.082
323.15 K, x2 = 0	796.47 ± 0.77	2.06 ± 0.083
323.15 K, x2 = 0.1	796.04 ± 0.77	2.016 ± 0.081
323.15 K, x2 = 0.2	795.63 ± 0.77	1.98 ± 0.08
323.15 K, x2 = 0.3	795.22 ± 0.77	1.942 ± 0.078
323.15 K, x2 = 0.399	794.82 ± 0.77	1.908 ± 0.077
323.15 K, x2 = 0.5	794.42 ± 0.77	1.877 ± 0.076
323.15 K, x2 = 0.6	794.02 ± 0.77	1.85 ± 0.075
323.15 K, x2 = 0.699	793.63 ± 0.77	1.823 ± 0.074
323.15 K, x2 = 0.799	793.24 ± 0.77	1.801 ± 0.073
323.15 K, x2 = 0.899	792.85 ± 0.77	1.791 ± 0.072
328.15 K, x2 = 0	792.41 ± 0.77	1.787 ± 0.072
328.15 K, x2 = 0.1	792 ± 0.77	1.753 ± 0.071
328.15 K, x2 = 0.2	791.6 ± 0.77	1.725 ± 0.07
328.15 K, x2 = 0.3	791.22 ± 0.77	1.697 ± 0.069
328.15 K, x2 = 0.399	790.84 ± 0.77	1.669 ± 0.067
328.15 K, x2 = 0.5	790.46 ± 0.77	1.645 ± 0.066
328.15 K, x2 = 0.6	790.08 ± 0.77	1.624 ± 0.066
328.15 K, x2 = 0.699	789.7 ± 0.77	1.609 ± 0.065
328.15 K, x2 = 0.799	789.33 ± 0.77	1.598 ± 0.065
328.15 K, x2 = 0.899	788.96 ± 0.77	1.594 ± 0.064
